Experimental data published in patent US9850227B2 (YUHAN CORPORATION, priority 2011, dated 2017).

Target: T1, human 5-HT4(a) (Homo sapiens, UniProt Q13639)
T1 construct: host or cells: GeneBIAzer HTR4-CRE-bla CHO-K1 cells
Assay: Evaluation of agonistic activity in CHO-K1 cells expressing human 5-HT4(a) (GeneBIAzer HTR4-CRE-bla CHO-K1 cells, beta-lactamase fluorescence ratio, EC50 from 8 concentrations)
Assay type: cell-based
Procedure, shortened: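 HTR4-CRE-bla CHO-K1 cells (10^4 per well, overnight in 1% FBS medium) exposed to compound for 5 h, then beta-lactamase substrate 2 h in the dark. Fluorescence ratio at 465/535 nm after 410 nm excitation; EC50 by non-linear regression over 8 concentrations.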

T1 sequence (Q13639 1-387 isoform Q13639-2): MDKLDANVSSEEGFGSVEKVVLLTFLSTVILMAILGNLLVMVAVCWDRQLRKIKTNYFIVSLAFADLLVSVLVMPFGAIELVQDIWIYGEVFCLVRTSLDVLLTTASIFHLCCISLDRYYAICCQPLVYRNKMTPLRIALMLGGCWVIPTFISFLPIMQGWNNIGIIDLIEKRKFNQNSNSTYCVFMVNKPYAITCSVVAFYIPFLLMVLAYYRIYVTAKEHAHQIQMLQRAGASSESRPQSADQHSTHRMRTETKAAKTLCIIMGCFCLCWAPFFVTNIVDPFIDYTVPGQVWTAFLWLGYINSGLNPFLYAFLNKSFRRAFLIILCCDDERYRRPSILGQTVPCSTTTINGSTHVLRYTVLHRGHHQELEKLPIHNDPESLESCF

Row | Compound | EC50
1 | CCCc1cc(N2CCC[C@@H](NCC3CC3)C2)nc(Nc2cc(N)cc(C#N)c2)n1 [Example 229, (R)-3-amino-5-{4-[3-(cyclopropylmethylamino)piperidin-1-yl]-6-propylpyrimidin-2-ylamino}benzonitrile] | 4.1 pM
2 | CCCc1cc(N2CCC[C@@H](NCC3CC3)C2)nc(Nc2ccc(N)c(C(F)(F)F)c2)n1 [Example 230, (R)—N^1-{4-[3-(cyclopropylmethylamino)piperidin-1-yl]-6-propylpyrimidin-2-yl}-3-(trifluoromethyl)benzene-1,4-diamine] | 4.6 pM
3 | CCCc1cc(N2CCC[C@@H](NCC3CC3)C2)nc(Nc2cc(N)cc(C(F)(F)F)c2)n1 [Example 231, (R)—N^1-{4-[3-(cyclopropylmethylamino)piperidin-1-yl]-6-propylpyrimidin-2-yl}-5-(trifluoromethyl)benzene-1,3-diamine] | 6.3 pM
4 | CCCCc1cc(N2CCC[C@@H](NC(C)=O)C2)nc(Nc2ccc(N)c([N+](=O)[O-])c2)n1 [Example 232, (R)—N-{1-[2-(4-amino-3-nitrophenylamino)-6-butylpyrimidin-4-yl]piperidin-3-yl}acetamide] | 3.7 pM
5 | CCCCc1cc(N2CCC[C@@H](NC(C)=O)C2)nc(Nc2ccc(C)c([N+](=O)[O-])c2)n1 [Example 233, (R)—N-{1-[6-butyl-2-(4-methyl-3-nitrophenylamino)pyrimidin-4-yl]piperidin-3-yl}acetamide] | 9 pM
6 | CCCCc1cc(N2CCC[C@@H](NC(C)=O)C2)nc(Nc2ccc(F)c([N+](=O)[O-])c2)n1 [Example 234, (R)—N-{1-[6-butyl-2-(4-fluoro-3-nitrophenylamino)pyrimidin-4-yl]piperidin-3-yl}acetamide] | 15 pM
7 | CCCCc1cc(N2CCC[C@@H](NC(C)=O)C2)nc(Nc2ccc(Cl)c([N+](=O)[O-])c2)n1 [Example 235, (R)—N-{1-[6-butyl-2-(4-chloro-3-nitrophenylamino)pyrimidin-4-yl]piperidin-3-yl}acetamide] | 12 pM
8 | CCCCc1cc(N2CCC[C@@H](NC(C)=O)C2)nc(Nc2cc(N)cc(C#N)c2)n1 [Example 236, (R)—N-{1-[2-(3-amino-5-cyanophenylamino)-6-butylpyrimidin-4-yl]piperidin-3-yl}acetamide] | 8.8 pM
9 | CCCCc1cc(N2CCC[C@@H](NC(C)=O)C2)nc(Nc2cc(N)cc(C(F)(F)F)c2)n1 [Example 237, (R)—N-{1-[2-(3-amino-5-trifluoromethylphenylamino)-6-butylpyrimidin-4-yl]piperidin-3-yl}acetamide] | 14 pM
10 | CCCCc1cc(N2CCC[C@@H](NC(C)=O)C2)nc(Nc2ccc(N)c(C(F)(F)F)c2)n1 [Example 238, (R)—N-{1-[2-(4-amino-3-trifluoromethylphenylamino)-6-butylpyrimidin-4-yl]piperidin-3-yl}acetamide] | 8.3 pM
11 | CCCCc1cc(N2CCC[C@@H](NC(C)=O)C2)nc(Nc2ccc(F)c(C(F)(F)F)c2)n1 [Example 239, (R)—N-{1-[6-butyl-2-(4-fluoro-3-trifluoromethylphenylamino)pyrimidin-4-yl]piperidin-3-yl}acetamide] | 17 pM
12 | CCCCc1cc(N2CCC[C@@H](NC(C)=O)C2)nc(Nc2ccc(F)c(C#N)c2)n1 [Example 240, (R)—N-{1-[6-butyl-2-(3-cyano-4-fluorophenylamino)pyrimidin-4-yl]piperidin-3-yl}acetamide] | 12 pM
13 | CCCCc1cc(N2CCC[C@@H](NC(C)=O)C2)nc(Nc2ccc(F)c(N)c2)n1 [Example 241, (R)—N-{1-[2-(3-amino-4-fluorophenylamino)-6-butylpyrimidin-4-yl]piperidin-3-yl}acetamide] | 14 pM
14 | CCCCc1cc(N2CCC[C@@H](NC(C)=O)C2)nc(Nc2ccc(Cl)c(N)c2)n1 [Example 242, (R)—N-{1-[2-(3-amino-4-chlorophenylamino)-6-butylpyrimidin-4-yl]piperidin-3-yl}acetamide] | 9.1 pM
15 | CCCCc1cc(N2CCC[C@@H](NC(C)=O)C2)nc(Nc2ccc(N)c(C#N)c2)n1 [Example 243, (R)—N-{1-[2-(4-amino-3-cyanophenylamino)-6-butylpyrimidin-4-yl]piperidin-3-yl}acetamide] | 9.4 pM
16 | CCCc1cc(N2CCC[C@@H](NC(=O)CO)C2)nc(Nc2ccc(C)c(C#N)c2)n1 [Example 244, (R)—N-{1-[2-(3-cyano-4-methylphenylamino)-6-propylpyrimidin-4-yl]piperidin-3-yl}-2-hydroxyacetamide] | 20 pM
17 | CCCc1cc(N2CCC[C@@H](NC(=O)CO)C2)nc(Nc2cccc(C#N)c2)n1 [Example 245, (R)—N-{1-[2-(3-cyanophenylamino)-6-propylpyrimidin-4-yl]piperidin-3-yl}-2-hydroxyacetamide] | 47 pM
18 | CCCc1cc(N2CCC[C@@H](NC(=O)CO)C2)nc(Nc2ccc(F)c(C#N)c2)n1 [Example 246, (R)—N-{1-[2-(3-cyano-4-fluorophenylamino)-6-propylpyrimidin-4-yl]piperidin-3-yl}-2-hydroxyacetamide] | 60 pM

Row | Compound | EC50
19 | CCCc1cc(N2CCC[C@@H](NC(=O)CO)C2)nc(Nc2cc(N)cc(C(F)(F)F)c2)n1 [Example 247, (R)—N-(1-{2-[3-amino-5-(trifluoromethyl)phenylamino]-6-propylpyrimidin-4-yl}piperidin-3-yl)-2-hydroxyacetamide] | 23 pM
20 | CCCc1cc(N2CCC[C@@H](NC(=O)CO)C2)nc(Nc2ccc(N)c(C(F)(F)F)c2)n1 [Example 248, (R)—N-(1-{2-[4-amino-3-(trifluoromethyl)phenylamino]-6-propylpyrimidin-4-yl}piperidin-3-yl)-2-hydroxyacetamide] | 18 pM
21 | CCCc1cc(N2CCC[C@@H](NC(=O)CO)C2)nc(Nc2ccc(F)c(C(F)(F)F)c2)n1 [Example 249, (R)—N-(1-{2-[4-fluoro-3-(trifluoromethyl)phenylamino]-6-propylpyrimidin-4-yl}piperidin-3-yl)-2-hydroxyacetamide] | 25 pM
22 | CCCc1cc(N2CCC[C@@H](NC(=O)CO)C2)nc(Nc2ccc(F)c(N)c2)n1 [Example 250, (R)—N-{1-[2-(3-amino-4-fluorophenylamino)-6-propylpyrimidin-4-yl]piperidin-3-yl}-2-hydroxyacetamide] | 27 pM
23 | CCCc1cc(N2CCC[C@@H](NC(=O)CO)C2)nc(Nc2ccc(Cl)c(N)c2)n1 [Example 251, (R)—N-{1-[2-(3-amino-4-chlorophenylamino)-6-propylpyrimidin-4-yl]piperidin-3-yl}-2-hydroxyacetamide] | 16 pM
24 | CCCc1cc(N2CCC[C@@H](NC(=O)CO)C2)nc(Nc2ccc(C)c(N)c2)n1 [Example 252, (R)—N-{1-[2-(3-amino-4-methylphenylamino)-6-propylpyrimidin-4-yl]piperidin-3-yl}-2-hydroxyacetamide] | 94 pM
25 | CCCc1cc(N2CCC[C@@H](NC(=O)CO)C2)nc(Nc2ccc(C)c(Cl)c2)n1 [Example 253, (R)—N-{1-[2-(3-chloro-4-methylphenylamino)-6-propylpyrimidin-4-yl]piperidin-3-yl}-2-hydroxyacetamide] | 57 pM
26 | CCCc1cc(N2CCC[C@@H](NC(=O)CO)C2)nc(Nc2ccc(C)c(C(F)(F)F)c2)n1 [Example 254, (R)-2-hydroxy-N-(1-{2-[4-methyl-3-(trifluoromethyl)phenylamino]-6-propylpyrimidin-4-yl}piperidin-3-yl)acetamide] | 38 pM
27 | CCCc1cc(N2CCC[C@@H](NC(=O)CO)C2)nc(Nc2cc(N)cc(C#N)c2)n1 [Example 255, (R)—N-{1-[2-(3-amino-5-cyanophenylamino)-6-propylpyrimidin-4-yl]piperidin-3-yl}-2-hydroxyacetamide] | 16 pM
28 | CCCc1cc(N2CCC[C@@H](N)C2)nc(Nc2cc(N)cc(C(F)(F)F)c2)n1 [Example 256, (R)—N^1-[4-(3-aminopiperidin-1-yl)-6-propylpyrimidin-2-yl]-5-(trifluoromethyl)benzene-1,3-diamine] | 12 pM
29 | CCCc1cc(N2CCC[C@@H](N)C2)nc(Nc2ccc(N)c(C(F)(F)F)c2)n1 [Example 257, (R)—N^1-[4-(3-aminopiperidin-1-yl)-6-propylpyrimidin-2-yl]-3-(trifluoromethyl)benzene-1,4-diamine] | 42 pM
30 | CCCc1cc(N2CCC[C@@H](N)C2)nc(Nc2ccc(F)c(N)c2)n1 [Example 259, (R)—N^1-[4-(3-aminopiperidin-1-yl)-6-propylpyrimidin-2-yl]-4-fluorobenzene-1,3-diamine] | 84 pM
31 | CCCc1cc(N2CCC[C@@H](N)C2)nc(Nc2cc(N)cc(C#N)c2)n1 [Example 260, (R)-3-amino-5-{[4-(3-aminopiperidin-1-yl)-6-propylpyrimidin-2-yl]amino}benzonitrile] | 7.5 pM
32 | CCCc1cc(N2CCC[C@@H](N)C2)nc(Nc2ccc(N)c(C#N)c2)n1 [Example 261, (R)-2-amino-5-{[4-(3-aminopiperidin-1-yl)-6-propylpyrimidin-2-yl]amino}benzonitrile] | 105 pM
33 | CCCc1cc(N2CCC[C@@H](N)C2)nc(Nc2ccc(Cl)c(N)c2)n1 [Example 262, (R)—N^1-[4-(3-aminopiperidin-1-yl)-6-propylpyrimidin-2-yl]-4-chlorobenzene-1,3-diamine] | 21 pM
34 | CCCc1cc(N2CCC[C@@H](N)C2)nc(Nc2ccc(C)c(C(F)(F)F)c2)n1 [Example 263, (R)-4-(3-aminopiperidin-1-yl)-N-[4-methyl-3-(trifluoromethyl)phenyl]-6-propylpyrimidin-2-amine] | 7.2 pM
35 | CCCc1cc(N2CCC[C@@H](N)C2)nc(Nc2ccc3cc[nH]c3c2)n1 [Example 264, (R)—N-[4-(3-aminopiperidin-1-yl)-6-propylpyrimidin-2-yl]-1H-indol-6-amine] | 328 pM
36 | CCCc1cc(N2CCC[C@@H](N)C2)nc(Nc2ccc(C)c([N+](=O)[O-])c2)n1 [Example 265, (R)-4-(3-aminopiperidin-1-yl)-N-(4-methyl-3-nitrophenyl)-6-propylpyrimidin-2-amine] | 49 pM
